# Results taken from patent publication US6447786B1, “Blocking expression of virulence factors in S. aureus” (New York University, priority 1994, dated 2002).
# No end group written: not given here.
# What was measured:
# Assay type in all cases: cell-based
# [1] = system: RNAIII transcription of S. aureus RN8463
# [2] = system: RNAIII transcription of S. aureus RN6607
# [3] = system: agr transcription of S. aureus RN6390B
# [4] = system: RNAIII transcription of various S. aureus strains
Substance,Effect of purified peptide on RNAIII transcription [1],Effect of purified peptide on RNAIII transcription [2],Effect of purified peptide on RNAIII transcription [3],S. aureus strains tested in which the agr response is inhibited [4]
"YINCDFLL [peptide from RN8463, peptide purified from supernatant of strain with cloned agrBD genes of RN8463]",activator effect,inhibitor effect,inhibitor effect,
"GVNACSSLF [peptide from RN6607, peptide purified from supernatant of strain with cloned agrBD genes of RN6607]",inhibitor effect,activator effect,inhibitor effect,
YSTCDFIM [activator peptide],inhibitor effect,inhibitor effect,activator effect,
DICNAYF [S. lugdunensis pheromone],,,,5 of 6
